# Laboratory results reported in patent US9919027B2, “Lipid nanoparticle of polymyxin” (priority 2013, dated 2018).
# What was measured:
# [1] = system: 31 P. aeruginosa strains obtained from 31 patients with cystic fibrosis; assay: In vitro minimum inhibitory concentration (MIC) in MHBCA broth; type: cell-based; conditions: 24 hours at 37° C.
# Description: The antibacterial action of an antibiotic can be measured by means of the minimum inhibitory concentration, which consists of the concentration of the antibiotic required to prevent bacterial growth after the incubation of 10^4-5 bacteria in rapid growth phase, in an aerobic, protein-free medium with pH 7.2 for an incubation period of one night. This term is used to determine the sensitivity of the bacteria to a specific antibiotic agent.
# 100 μl of a concentration of 10^4 Colony Forming Units (CFU)/ml of 31 P. aeruginosa strains obtained from 31 patients with cystic fibrosis, 13 strains of which were mucus producers, were incubated for 24 hours at 37° C. in a Mueller Hinton broth, cation-adjusted (MHBCA) medium, corresponding to between 20 mg and 25 mg per liter of calcium and between 10 mg and 12.5 mg per liter of magnesium, assuring the reproducibility of the results for P. aeruginosa, in the presence of colistimethate sodium, and nanoparticles obtained according to Examples 1b and 2b, at different concentrations (less than 0.25, 0.25, 0.5, 1, 2, 4, 8 and 32 μg/ml).
# [2] = system: mucosa producing P. aeruginosa strain; assay: In vivo efficacy in CD1 mice with pulmonary infection, lung bacteria count; conditions: infected CD1 mice; intratracheal, once a day for three days; 3000 IU (0.24 mg colistimethate sodium equivalent)
# Description: To carry out the in vivo toxicity and efficacy assays of the nanoparticles of the present invention, it was necessary to establish a rodent infection model. An intratracheal administration of different concentrations of mucosa producing P. aeruginosa included in microspheres (Concentration 1: 5×10^4 CFU, Concentration 2: 2.4×10^7 CFU, and Concentration 3: 3.89×10^10), obtained from a patient with cystic fibrosis, suspended in PBS, in CD1 mice was carried out, administering a different concentration to each rodent, to establish the optimum concentration for generating a suitable pulmonary infection, capable of making the rodents sick without causing their immediate death.
# Five mice were used as the control group and 64 mice infected with the inoculation of the bacteria of a mucosa producing P. aeruginosa strain, at a concentration of 2.4×10^7 CFU, as explained in Example 8, were used. […] The amounts were calculated by adjusting the dose recommended in humans with respect to the weight of the mice (3000 IU, equivalent to 0.24 mg of free colistimethate sodium, equivalent to 2.88 mg of the nanoparticles according to Example 1b and 2.52 mg of nanoparticles according to Example 2b). […]
# H441 cell line = assay: Cell viability IC50 (CCK-8) as toxicity marker, H441; type: cell-based, human; conditions: 24 h incubation, triplicate
# Description: (§1) The median inhibition concentration value (IC50) refers to the concentration of an assayed sample required to inhibit the growth of the 50% of the cell population. In this case IC50 value was estimated as a toxicity marker, as the cell viability assay is run under human cell (A549 and H441 cell lines, which are immortalised lines derived from human adenocarcinomic epithelial cell). Cells (at a density of 12,000 cells per well in a 96-well plate) were grown in Dulbecco's Modified Eagle Medium (DMEM) supplemented with 10% foetal bovine serum (FBS), 1% L-glutamine, 1% penicillin/streptomycin solution and 1% of Minimum Essential Medium non-essential amino acids 100× (MEM-NEAA) at 37° C. and 5% CO2 for 24 hours. Decreasing concentrations of nanoparticles 1b and 2b and free colistimethate sodium, starting from 10 mg/ml to 0.07812 mg/ml were added to the cells, diluted in DMEM supplemented with 0.5% serum and incubated at 37°±2° C. and 5% CO2 for 24 h. Cell viability was assessed by means of the Cell Counting Kit 8 after a washing step. With this aim, 10% of CCK-8 reagent was added to each well and incubated in a wet chamber for 4 hours at 37°±2° C. and 5% CO2. Subsequently, the absorbance was read at 450 nm and at 650 nm as the reference wavelength. The absorbance was directly proportional to the number of living cells in culture. […]
# A549 cell line = assay: Cell viability IC50 (CCK-8) as toxicity marker, A549; type: cell-based, human; conditions: 24 h incubation, triplicate
# Description: as §1
substance,measurement,setting,value
colistimethate sodium,MIC,[1]; obtained for 16% of the 31 strains,0.5 µg/mL
same,MIC,[1]; obtained for 25% of the 31 strains,1 µg/mL
same,MIC,[1]; obtained for 48% of the 31 strains,2 µg/mL
same,MIC,[1]; obtained for the remaining strains,4 µg/mL
same,Bacterial count (log CFU for every 2 lungs),[2],4.9 ± 0.2 log CFU for every 2 lungs
same,"IC50 (median inhibition concentration, cell viability)",H441 cell line,6.58 ± 0.72 µg/mL
same,"IC50 (median inhibition concentration, cell viability)",A549 cell line,101.27 ± 14.44 µg/mL
